# Structures can show the parent of a compound that is named as a salt.
# Assays:
# rHSP90 = assay: HSP90 binding assay (BIACORE SPR; inhibition of binding between rHSP90 and fixed herbimycin A); conditions: concentration inhibiting binding between rHSP90 (50 μg/mL) and fixed herbimycin A by 50%, BIACORE-X SPR; read-out: HSP90 inhibitory activity IC50
# [1] = tested on: Human breast cancer cells (MCF7); assay: Antiproliferative activity on MCF7 cells (methylene blue method); type: cell-based; conditions: Homo sapiens, MCF7, 72 h, MCF7 cells, 72 hours treatment, 660 nm absorbance after methylene blue staining; read-out: Antiproliferative activity IC50
# [2] = tested on: HSP90 client protein Her2 in MCF7 cells; assay: Measurement test for amount of HSP90 client protein Her2 (Western blotting); type: cell-based; conditions: MCF7 cells treated 16 hours at 3-5 concentrations
# Method: (§1) MCF7 cells (American Type Culture Collection, Rockville, Md.) were treated with the compounds of the present invention at various concentrations for 16 hours to confirm that the HSP90 inhibitors of the present invention induce a depression of intracellular concentration of the client protein or target polypeptide that bind to HSP90. The amount of the HSP90 client protein Her2 and ERα was evaluated by the Western blotting method.
# (§2) One million cells were seeded in a 6 cm dish, and 24 hours later the compounds of the present invention (Example 1-2, Example 2-1, Example 2-13, Example 2-2, Example 3-4, Example 2-5, Example 3-16, Example 3-6, Example 2-7, Example 3-27, Example 2-10 and Example 3-18) were added. Cells treated with the compounds were washed, mixed with 150 μl of lysis buffer (RIPA, 150 mM NaCl, 1% NP40, 0.1% deoxycholate (sodium salt), 0.1% SDS, 1 mM EDTA, 10 mM Tris-HCl (pH 8.0)) and incubated at 4° C. for 30 minutes. The cell lysates were centrifuged (15,000 rpm, 20 minutes) and protein (20 μg) of the supernatant was subjected to SDS polyacrylamide gel electrophoresis (SDS-PAGE). After finishing the electrophoresis, proteins in the gel were transferred to a PVDF membrane. The membrane after the transfer was treated with a primary antibody against the HSP90 client protein (anti Her2 or anti ERa antibody, both from Santa Cruz Biotechnology, Santa Cruz, Calif.), then treated with secondary antibodies (anti-rabbit Ig, horse radish peroxidase conjugated F(ab′)2 fragment (derived from donkey): Amersham Biosciences, UK Limited, Buckinghamhshire, UK.) and then the amount of the client protein was detected as the intensity of chemiluminescence signal with a chemiluminescence reagent (ECL: Amersham Biosciences UK Limited, Buckinghamshire, UK).
# [3] = tested on: HSP90 client protein ERα in MCF7 cells; assay: Measurement test for amount of HSP90 client protein ERα (Western blotting); type: cell-based; conditions: MCF7 cells treated 16 hours at 3-5 concentrations
# Method: as §1, §2
# Human lung cancer H460 = assay: Antitumor effect on nude mice transplanted with human lung cancer H460; type: in vivo; conditions: tail vein, starting day = 1.0
# Method: Antitumor Effect on Nude Mice Transplanted with Human Lung Cancer
# Human lung cancer H460 tumor fragment, which had been passaged subcutaneously in nude mice, was made into about 3 mm fragment and transplanted subcutaneously to the back of nude mice using a trocar. When the tumor volume grew to about 50 mm^3 or above, the compound of the present invention was administered to the tail vein once a day for 5 or 7 days every day. The compound of the present invention was dissolved in DMSO, mixed with TWEEN 80, and then diluted with a 5% glucose injection solution and used. The vehicle of the compound was administered to the control group of OH-a01. The control groups in other experiments were not treated. The tumor volume was measured on the first administration day and on the evaluation day (7 or 8 days after the start of the administration), and the relative tumor volume of the evaluation day was obtained from the tumor volume on the first administration day. Further, the tumor volume was calculated by measuring the major axis (Lmm) and minor axis (Wmm) of the tumor and by the formula (L×W^2)/2.
# Relative tumor volume represents the average relative tumor volume on day 7 after the start of the administration, assuming the tumor volume of the starting day is 1.0.
# Relative tumor volume represents the average relative tumor volume on day 8 after the start of the administration, assuming the tumor volume of the starting day is 1.0.
# [4] = Table 10, 100 mg/kg/day, 5 days continuous, day 8, control group 6.5 ± 2.0
Structure (SMILES),IC50 (rHSP90) [nM],IC50 [1] [nM],melting point,amount of HSP90 client protein Her2 [2],amount of HSP90 client protein ERα [3],"Relative tumor volume (Average ± SD) (Human lung cancer H460; Table 8, 3.8 mg/kg/day, 7 days continuous, day 7, control group 7.3 ± 1.7)","Relative tumor volume (Average ± SD) (Human lung cancer H460; Table 8, 7.5 mg/kg/day, 7 days continuous, day 7, control group 7.3 ± 1.7)","Relative tumor volume (Average ± SD) (Human lung cancer H460; Table 10, 50 mg/kg/day, 5 days continuous, day 8, control group 6.5 ± 2.0)",Relative tumor volume (Average ± SD) (Human lung cancer H460; [4]),"Relative tumor volume (Average ± SD) (Human lung cancer H460; Table 9, 75 mg/kg/day, 5 days continuous, day 8, control group 4.6 ± 3.1)","Relative tumor volume (Average ± SD) (Human lung cancer H460; Table 9, 150 mg/kg/day, 5 days continuous, day 8, control group 4.6 ± 3.1)","Relative tumor volume (Average ± SD) (Human lung cancer H460; Table 10, 150 mg/kg/day, 5 days continuous, day 8, control group 6.5 ± 2.0)","Relative tumor volume (Average ± SD) (Human lung cancer H460; Table 9, 100 mg/kg/day, 5 days continuous, day 8, control group 4.6 ± 3.1)","Relative tumor volume (Average ± SD) (Human lung cancer H460; Table 9, 200 mg/kg/day, 5 days continuous, day 8, control group 4.6 ± 3.1)"
"CC(C)c1cc(-c2n[nH]c(=O)n2C(C)C)c(O)cc1O [OH-a21, 5-(2,4-dihydroxy-5-isopropyl-phenyl)-4-isopropyl-2,4-dihydro-[1,2,4]triazol-3-one]",130,38,261 to 262 °C (dec.),depression,depression,–,–,–,–,–,–,–,–,–
"COc1ccc(-n2c(-c3cc(C(C)C)c(O)cc3O)nnc2S(=O)(=O)CCCN2CCCCC2)cc1 [SFN3-a08, 4-isopropyl-6-[4-(4-methoxy-phenyl)-5-(3-piperidin-1-yl-propane-1-sulfonyl)-4H-[1,2,4]triazol-3-yl]-benzene-1,3-diol]",590,44,–,depression,depression,–,–,–,5.4 ± 1.3,–,–,2.9 ± 0.6,–,–
"COc1ccc(-n2c(-c3cc(C(C)C)c(O)cc3O)nnc2S(=O)(=O)CCCN(C)C)cc1 (as salt: hydrochloride) [SFN2-a08, 4-[5-(3-dimethylamino-propane-1-sulfonyl)-4-(4-methoxy-phenyl)-4H-[1,2,4]triazol-3-yl]-6-isopropyl-benzene-1,3-diol]",–,–,233 °C (dec.),–,–,–,–,–,–,–,–,–,–,–

# More lines, main results first:
IC50 (rHSP90) [nM],IC50 [1] [nM],melting point,Structure (SMILES),amount of HSP90 client protein Her2 [2],amount of HSP90 client protein ERα [3],"Relative tumor volume (Average ± SD) (Human lung cancer H460; Table 8, 3.8 mg/kg/day, 7 days continuous, day 7, control group 7.3 ± 1.7)","Relative tumor volume (Average ± SD) (Human lung cancer H460; Table 8, 7.5 mg/kg/day, 7 days continuous, day 7, control group 7.3 ± 1.7)","Relative tumor volume (Average ± SD) (Human lung cancer H460; Table 10, 50 mg/kg/day, 5 days continuous, day 8, control group 6.5 ± 2.0)",Relative tumor volume (Average ± SD) (Human lung cancer H460; [4]),"Relative tumor volume (Average ± SD) (Human lung cancer H460; Table 9, 75 mg/kg/day, 5 days continuous, day 8, control group 4.6 ± 3.1)","Relative tumor volume (Average ± SD) (Human lung cancer H460; Table 9, 150 mg/kg/day, 5 days continuous, day 8, control group 4.6 ± 3.1)","Relative tumor volume (Average ± SD) (Human lung cancer H460; Table 10, 150 mg/kg/day, 5 days continuous, day 8, control group 6.5 ± 2.0)","Relative tumor volume (Average ± SD) (Human lung cancer H460; Table 9, 100 mg/kg/day, 5 days continuous, day 8, control group 4.6 ± 3.1)","Relative tumor volume (Average ± SD) (Human lung cancer H460; Table 9, 200 mg/kg/day, 5 days continuous, day 8, control group 4.6 ± 3.1)"
140,4.9,–,"CC(C)c1cc(-c2n[nH]c(=O)n2-c2ccc(N3CCOCC3)cc2)c(O)cc1O [OH-a01, 4-{5-hydroxy-4-[4-(morpholin-4-yl)-phenyl]-4H-[1,2,4]triazol-3-yl}-6-isopropyl-benzene-1,3-diol]",depression,depression,3.3 ± 0.7,1.7 ± 0.5,–,–,–,–,–,–,–
250,71,–,"CC(C)c1cc(-c2n[nH]c(=O)n2-c2ccc(CN3CCN(C)CC3)cc2)c(O)cc1O [OH-a13, 5-(2,4-dihydroxy-5-isopropylphenyl)-4-[4-(4-methylpiperazin-1-ylmethyl)phenyl]-2,4-dihydro-[1,2,4]triazol-3-one]",depression,depression,–,–,1.4 ± 0.5,1.1 ± 0.3,–,–,–,–,–
180,16,–,"CC(C)c1cc(-c2n[nH]c(=O)n2-c2ccc(CN3CCOCC3)cc2)c(O)cc1O [OH-a02, 4-{5-hydroxy-4-[4-(morpholin-4-ylmethyl)-phenyl]-4H-[1,2,4]triazol-3-yl}-6-isopropyl-benzene-1,3-diol]",depression,depression,–,–,–,–,3.5 ± 2.3,2.1 ± 0.1,–,–,–
120,11,272 °C (dec.),"COc1ccc(-n2c(-c3cc(C(C)C)c(O)cc3O)n[nH]c2=O)cc1 [OH-a08, 5-(2,4-dihydroxy-5-isopropyl-phenyl)-4-(4-methoxy-phenyl)-2,4-dihydro-[1,2,4]triazol-3-one]",depression,depression,–,–,–,–,–,–,–,1.9 ± 1.0,1.1 ± 0.3
